# Test results reported in ChEMBL document CHEMBL1201862, “PubChem BioAssay data set” (2004).
#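 Interpolation was linear, between the two tested concentrations surrounding the appropriate level; five concentrations were tested over 48 hours in 96-well plates. GI50: concentration for 50% inhibition of growth.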 The source made the active and inactive calls. No stated cut-off is given here; in the data, active = GI50 up to about 1.1 µM and inactive = higher.
# Columns and labels:
# Test in all cases: growth of human tumour cells (NCI), 48 h
# LXFL 529 = tested on: LXFL 529
# SNB-78 = tested on: SNB-78
# XF498 = tested on: XF498
# DMS-273 = tested on: DMS-273
# HOP-18 = tested on: HOP-18
# KM-20L2 = tested on: KM-20L2
# DMS-114 = tested on: DMS-114
# DLD-1 = tested on: DLD-1
# RXF 631 = tested on: RXF 631
Structure (SMILES),GI50 (LXFL 529),GI50 (SNB-78),GI50 (XF498),GI50 (DMS-273),GI50 (HOP-18),GI50 (KM-20L2),GI50 (DMS-114),GI50 (DLD-1),GI50 (RXF 631)
Cc1ccc(NC(=O)C2C(=O)N(c3ccc(C)cc3)C(=O)/C2=N\NC(N)=S)cc1 (stereo not given),> 100 µM (inactive),> 100 µM (inactive),> 100 µM (inactive),> 100 µM (inactive),> 100 µM (inactive),> 100 µM (inactive),> 100 µM (inactive),–,–
O=C1CCCCCCC2=C1C(Sc1ccccc1)CC2 (stereo not given),35.4 µM (inactive),> 100 µM (inactive),–,26.2 µM (inactive),> 100 µM (inactive),41.6 µM (inactive),23.7 µM (inactive),–,–
c1cnc2c(c1)-n1cccc1C1(CCOCC1)NN2,> 100 µM (inactive),–,> 100 µM (inactive),> 100 µM (inactive),> 100 µM (inactive),> 100 µM (inactive),> 100 µM (inactive),> 100 µM (inactive),–
O=c1n(-c2ccccc2)c(=O)n2n1C1C=CC2C2C(C1)C2(Cl)Cl (stereo not given),> 100 µM (inactive),> 100 µM (inactive),> 100 µM (inactive),> 100 µM (inactive),–,> 100 µM (inactive),> 100 µM (inactive),> 100 µM (inactive),> 100 µM (inactive)
CSC[S+]([O-])C[C@H](CO)NC(=O)/C=C/c1c(C)[nH]c(=O)[nH]c1=O (stereo not given in full),1.96 µM (inactive),0.318 µM (active),0.214 µM (active),1.43 µM (inactive),2.85 µM (inactive),0.979 µM (active),0.757 µM (active),1.6 µM (inactive),2.58 µM (inactive)
O=C(/C=C/c1ccccc1)Oc1cccc2cccnc12,4.06 µM (inactive),21 µM (inactive),11.3 µM (inactive),23 µM (inactive),25.8 µM (inactive),2.2 µM (inactive),–,4.37 µM (inactive),–
Nc1ccc2c(SCc3ccc([N+](=O)[O-])cc3)c3ccccc3nc2c1,6.08 µM (inactive),21.9 µM (inactive),14.6 µM (inactive),19.9 µM (inactive),13.5 µM (inactive),16.5 µM (inactive),15 µM (inactive),2.39 µM (inactive),–
C#C[C@]1(O)CCC2C3CCc4cc(Oc5nc(F)nc(-n6c(C)nc7cc8ccccc8cc76)n5)ccc4C3CCC21C (stereo not given in full),41.1 µM (inactive),75.3 µM (inactive),61 µM (inactive),20.8 µM (inactive),30.6 µM (inactive),32.4 µM (inactive),20.6 µM (inactive),53.3 µM (inactive),–
O=c1c2cc(Br)ccc2[nH]c(=S)n1-c1ccccc1,–,> 100 µM (inactive),–,> 100 µM (inactive),> 100 µM (inactive),> 100 µM (inactive),–,> 100 µM (inactive),> 100 µM (inactive)
CCCCCCCCCCCCC(Br)C(=O)SCCNC(=O)CCNC(=O)[C@@H](O)C(C)(C)COP(=O)(O)OP(=O)(O)OCC1OC(n2cnc3c(N)ncnc32)C(O)C1OP(=O)(O)O (stereo not given in full),> 56.5 µM (inactive),> 56.5 µM (inactive),> 56.5 µM (inactive),> 56.5 µM (inactive),> 56.5 µM (inactive),> 56.5 µM (inactive),> 56.5 µM (inactive),> 56.5 µM (inactive),–
Fc1ccc2c(c1)cc1ccc3cccc4ccc2c1c34,> 100 µM (inactive),> 100 µM (inactive),> 100 µM (inactive),> 100 µM (inactive),> 100 µM (inactive),> 100 µM (inactive),> 100 µM (inactive),> 100 µM (inactive),> 100 µM (inactive)
N#Cc1cccc(N2C(=O)C3C4C=CC(C3C2=O)C2C(=O)N(c3cccc(C#N)c3)C(=O)C42)c1 (stereo not given),> 46.5 µM (inactive),12.7 µM (inactive),15.5 µM (inactive),15.2 µM (inactive),> 65.2 µM (inactive),> 100 µM (inactive),16.3 µM (inactive),> 46.5 µM (inactive),24.7 µM (inactive)
C/C(=C\C(C[C@](C)(O)C(O)CCC#C[Si](C)(C)C)S(=O)(=O)c1ccccc1)CC/C=C/CO[Si](C)(C)C(C)(C)C (stereo not given in full),–,16.8 µM (inactive),13.2 µM (inactive),15.7 µM (inactive),–,8.61 µM (inactive),15.2 µM (inactive),23.6 µM (inactive),9.66 µM (inactive)
CN1C(=O)CC2(C)c3cc(O)cc(Br)c3N(C)C12 (stereo not given),> 100 µM (inactive),> 100 µM (inactive),> 100 µM (inactive),–,31.6 µM (inactive),> 100 µM (inactive),> 100 µM (inactive),–,–
CCOC(=O)C(=O)Nc1ccc(Cl)cc1C,> 100 µM (inactive),> 100 µM (inactive),> 100 µM (inactive),> 100 µM (inactive),> 100 µM (inactive),> 100 µM (inactive),> 100 µM (inactive),> 100 µM (inactive),–
CC1=C(C(=O)Nc2ccccc2)C(c2ccccc2)C(C(=O)Nc2ccccc2)=C(C)N1,22.1 µM (inactive),> 100 µM (inactive),–,47.4 µM (inactive),> 100 µM (inactive),25.2 µM (inactive),19.2 µM (inactive),52.7 µM (inactive),–

Structure (SMILES),GI50 (LXFL 529),GI50 (SNB-78),GI50 (XF498),GI50 (DMS-273),GI50 (HOP-18),GI50 (KM-20L2),GI50 (DMS-114),GI50 (DLD-1),GI50 (RXF 631)
CC(=O)Nc1ccccc1S(=O)(=O)c1ccccc1,> 100 µM (inactive),> 100 µM (inactive),79.6 µM (inactive),> 100 µM (inactive),> 100 µM (inactive),> 100 µM (inactive),> 100 µM (inactive),> 100 µM (inactive),> 100 µM (inactive)
O=C(CC1C(=O)Nc2ccccc2S1(=O)=O)Nc1cc(Cl)ccc1Cl (stereo not given),14.1 µM (inactive),12.7 µM (inactive),14.1 µM (inactive),–,–,15.6 µM (inactive),12.5 µM (inactive),15 µM (inactive),28.4 µM (inactive)
CC(C)(C)N/N=C(\C(=O)Nc1cccc(Cl)c1)C1C(=O)Nc2ccccc2[S+]1[O-] (stereo not given),> 100 µM (inactive),–,> 100 µM (inactive),> 100 µM (inactive),> 100 µM (inactive),> 100 µM (inactive),> 100 µM (inactive),> 100 µM (inactive),> 100 µM (inactive)
CC1=Nn2c(nnc2-c2ccc(Cl)cc2)NC(C)(C)C1,> 100 µM (inactive),> 100 µM (inactive),> 100 µM (inactive),> 100 µM (inactive),> 100 µM (inactive),> 100 µM (inactive),> 100 µM (inactive),> 100 µM (inactive),–
C/C=C(\N=C=S)C(=O)OC1C(COC(C)=O)OC([C@]2(O)CC(=O)C(N)=C(C(=O)O)C2=O)C(O)C1OC1CC(OC)C(O)([C@@H](C)OC(=O)[C@@H](C)CC)C(C)O1 (stereo not given in full),2.06 µM (inactive),5.21 µM (inactive),2.49 µM (inactive),16.3 µM (inactive),16.8 µM (inactive),6.92 µM (inactive),6.68 µM (inactive),10.9 µM (inactive),–
CN(CC(=O)O)S(=O)(=O)c1ccc2ccccc2c1,> 100 µM (inactive),–,> 100 µM (inactive),> 100 µM (inactive),> 100 µM (inactive),> 100 µM (inactive),–,> 100 µM (inactive),> 100 µM (inactive)
O=c1/c(=C/c2ccccc2[N+](=O)[O-])sc2nnc(-c3cccnc3)n12,> 100 µM (inactive),> 100 µM (inactive),> 100 µM (inactive),> 100 µM (inactive),> 100 µM (inactive),> 100 µM (inactive),> 100 µM (inactive),> 100 µM (inactive),> 100 µM (inactive)
C=C(C)CC(C)(c1cc2ccccc2n1C)N1CCOCC1 (stereo not given),53.7 µM (inactive),–,50.6 µM (inactive),61 µM (inactive),> 100 µM (inactive),> 100 µM (inactive),–,60.5 µM (inactive),42.4 µM (inactive)
COc1ccc2ccc3c(c2c1)CN1CCc2cc(OC)c(OC)cc2C1C3 (stereo not given),66.2 µM (inactive),> 100 µM (inactive),60.3 µM (inactive),> 100 µM (inactive),> 100 µM (inactive),> 100 µM (inactive),> 100 µM (inactive),> 100 µM (inactive),> 100 µM (inactive)
CC(C)(C)c1cc(C(O)(C(F)(F)F)C(F)(F)F)c2c(c1)C(C(F)(F)F)(C(F)(F)F)OC(C)(C(C)(C)C)N2 (stereo not given),2.96 µM (inactive),5.87 µM (inactive),1.63 µM (inactive),3.06 µM (inactive),2.76 µM (inactive),3.03 µM (inactive),2.74 µM (inactive),2.85 µM (inactive),–
CCN(CC)C(=S)SC1CCOP(=O)(N(CCCl)CCCl)N1C (stereo not given),0.0372 µM (active),49.2 µM (inactive),–,0.214 µM (active),> 100 µM (inactive),38.7 µM (inactive),0.19 µM (active),0.126 µM (active),–
Cc1cc(NC(=O)NC(=O)c2ccccc2NC(=O)C(C)N)ccc1Oc1ncc(Br)cn1 (stereo not given),0.396 µM (active),0.146 µM (active),–,0.046 µM (active),–,0.0946 µM (active),1.13 µM (inactive),0.331 µM (active),–
O=C(O)COc1ccc(C(=O)/C(SS/C(C(=O)c2ccc(OCC(=O)O)c(Cl)c2Cl)=C2\C=C(c3ccc(F)cc3)SS2)=C2/C=C(c3ccc(F)cc3)SS2)c(Cl)c1Cl,3.29 µM (inactive),6.08 µM (inactive),5.22 µM (inactive),13.6 µM (inactive),14.7 µM (inactive),30 µM (inactive),3.28 µM (inactive),11.2 µM (inactive),–
CC12CO[C@@](C)(CC(S(=O)(=O)c3ccccc3)C1)O2 (stereo not given in full),> 100 µM (inactive),> 100 µM (inactive),–,> 100 µM (inactive),> 100 µM (inactive),> 100 µM (inactive),> 100 µM (inactive),> 100 µM (inactive),–
COC(=O)C12CC(C3CC31)C1CC12 (stereo not given),> 100 µM (inactive),–,–,> 100 µM (inactive),> 100 µM (inactive),> 100 µM (inactive),> 100 µM (inactive),> 100 µM (inactive),> 100 µM (inactive)
